Key:
[1] = test system: Aspergillus fumigatus FP1305; assay: Antimicrobial activity, serial broth dilution method (96-well microtiter plate); type: cell-based; conditions: yeast nitrogen base dextrose medium, 1×10^5 cfu/ml, 37° C. for 24 hours, microscopic observation
Procedure: (§1) Test (Antimicrobial activity):
(§2) Test Compound The object compound of Example 1
(§3) Antimicrobial activity of the object compound of Example 1 was determined by a serial broth dilution method using 96-well microtiter plate in 100 μl of MEM (Eagle's minimum essential medium) for Candida albicans and in 100 μl of yeast nitrogen base dextrose medium for both Asperaillus fumigatus and Cryptococcus neoformans. The inoculum was adjusted to 1×10^5 colony forming units/ml. Candida albicans and Asperaillus fumigatus were cultured at 37° C. for 24 hours and Cryptococcus neoformans was cultured at 37° C. for 48 hours in 5% CO2 incubator. After incubation, the growth inhibition of microorganisms in each well was determined by microscopic observation. The results were shown as MEC (minimum effective concentration: μg/ml) value (Table 2).

[2] = test system: Candida albicans FP633; assay: as above; type: cell-based; conditions: MEM, 1×10^5 cfu/ml, 37° C. for 24 hours, microscopic observation
Procedure: as §1, §2, §3

[3] = Solubility (physico-chemical properties)

SMILES | MEC (minimum effective concentration) [1] | MEC (minimum effective concentration) [2] | melting point | Solubility ([3]; acetone) | Solubility ([3]; chloroform) | Solubility ([3]; ethyl acetate) | Solubility ([3]; methanol) | Solubility ([3]; water)
CCCCCCCCCCCCCCCC(=O)NC1CC(O)C(O)NC(=O)C2C(O)CCN2C(=O)C(C(O)CC(N)=O)NC(=O)C(C(O)C(O)c2ccc(O)c(OS(=O)(=O)[O-])c2)NC(=O)C2CC(O)CN2C(=O)C(C(C)O)NC1=O.[Na+] (stereo not drawn) [Example 1] | 0.08 µg/mL | 0.04 µg/mL | 165 to 170 °C (dec.) | slightly soluble | insoluble | slightly soluble | soluble | soluble
CC(O)C1NC(=O)C(N)CC(O)C(O)NC(=O)C2C(O)CCN2C(=O)C(C(O)CC(N)=O)NC(=O)C(C(O)C(O)c2ccc(O)c(OS(=O)(=O)O)c2)NC(=O)C2CC(O)CN2C1=O (stereo not drawn) [Example 2] |  |  | 150 to 155 °C |  |  |  |  | 

Source: US6399567B1, “Cyclic hexapeptides having antibiotic activity” (Fujisawa Pharmaceutical Co., Ltd., priority 1996, dated 2002)
